Experimental data as given in patent US6875844B1, “Peptide compounds derived from a shifted ORF of the iCE gene” (Institut Gustave Roussy, priority 1999, dated 2005).

Legend:
HLA-B*0702 = target: T1, HLA-B*0702 (Homo sapiens, UniProt P01889); experiment: Binding and stability of peptide on T2 cells transfected with HLA-B*0702 (HLA-B7 expression by flow cytometry)
T1 construct: expressed in transfected cells; host or cells: T2 cells
Protocol: T2 cells were incubated at 26° C. for 16 hours in medium without serum containing peptides at a concentration of 50 μM. Then, the peptides were again added, and the cells were incubated at 37° C. At 30-min or 1-h intervals, aliquots of cells were harvested, and the change in HLA-B7 expression was monitored by flow cytometry using an anti-HLA-B7 mAB (HB59). By way of control, an HLA-A2-restricted HSP70 peptide was used. The peptide SPRWWPTCL is provided in SEQ ID NO: 2.
HLA-A2-binding peptide antigens upregulate the expression of HLA-A2 molecules on T2 cells (37). Similarly, T2 cells transfected with HLA-B*0702 (38) were used to analyze the binding capacity and the stability of the iCE peptide (FIG. 6). At […], the binding of the iCE peptide is stable over time for at least 4 h, unlike the control, which is the HLA-A2-restricted HSP70 peptide (14).

[1] = test system: autologous EBV-transformed B cells; experiment: Target sensitization assay: 51Cr release lysis by CTL clone 3B8 of peptide-incubated autologous EBV-transformed B cells; format: cell-based, human; details: EBV-transformed B cells incubated with peptide, CTL clone 3B8 effector 30:1, chromium release after 4 h; read-out: Peptide concentration giving semi-maximal lysis
Protocol: 2000 EBV-transformed cells were incubated and labeled with 51Cr for 1 h in the presence of the HLA-B7-restricted iCE peptide (SPRWWPTCL; SEQ ID NO:2) or another control HLA-B7-restricted peptide (VISTVVANL; SEQ ID NO:9). Clone 3B8 was then added as an effector, in a ratio set at 30:1. Chromium release was measured after 4 h.
The cytolytic activity of the CTLs was determined in a standard ^51Cr release assay as previously described (22). Target cells (RCC and K562 cell lines) were labeled for 1 h with 50 μCi to 100 μCi of ^51Cr (Du Pont, NEN, Boston, Mass.) at 37° C., and 2×10^3 cells were seeded in 96-microwell plates in 100 μl of RPMI supplemented with 5% of FCS. […] The 96-microwell plates were incubated at 37° C. for 4 h, and ^51Cr release was determined in the harvested supernatants. […]
In order to reduce the nucleotide sequence encoding the antigen, several truncated cDNAs were obtained by PCR amplification. […] After examining the corresponding amino acid sequence, all possible nonamers and decamers were synthesized, and their ability to make autologous EBV-transformed B cells sensitive to lysis by 3B8 was evaluated.
Finally, an alternative ORF was found (a+1 translational open reading frame leading to a 453-nt ORF) with three ATGs in nt positions 476, 479 and 803, which encodes a nonamer (SPRWWPTCL) (SEQ ID NO: 2) in the minimum region of nt 763-855. […]

“SPRWWPTCL [nonamer encoded by the +1 alternative ORF of the iCE gene, with HLA-B7-anchoring residues at positions 2, 3 and 9]” was tested, and the “Stability of binding to T2 cells transfected with HLA-B*0702 (in words)” value (HLA-B*0702; T2 cells transfected with HLA-B*0702) was “stable with time”, the “Time over which binding to HLA-B7 is stable” value (HLA-B*0702; T2 cells transfected with HLA-B*0702, peptide at 50 mM (so in the source), 37° C.) was “at least 4 h” and the “Binding to HLA-B*0702-presenting molecules (in words)” value (HLA-B*0702; binding assay by immunofluorescence using transfected T2 cells) was “binds”. For the same sequence, the EC50 [1] was less than 1000 nM.
